Reference: article PMC6784244 (Toxins, 2019)

Conditions: pH 7.4

Point of comparison: `CC(C)[C@H]1C(=O)O[C@H](C(C)C)C(=O)N(C)[C@@H](C(C)C)C(=O)O[C@H](C(C)C)C(=O)N(C)[C@@H](C(C)C)C(=O)O[C@H](C(C)C)C(=O)N1C` [ENN B], “critical pressure of insertion, Cardiolipin” value 33.29 mN/m. Against it:
- CC[C@H](C)[C@H]1C(=O)O[C@H](C(C)C)C(=O)N(C)[C@@H]([C@@H](C)CC)C(=O)O[C@H](C(C)C)C(=O)N(C)[C@@H]([C@@H](C)CC)C(=O)O[C@H](C(C)C)C(=O)N1C [ENN A] — higher, 49.72 mN/m
- CC[C@H](C)[C@H]1C(=O)O[C@H](C(C)C)C(=O)N(C)[C@@H]([C@@H](C)CC)C(=O)O[C@H](C(C)C)C(=O)N(C)[C@@H](C(C)C)C(=O)O[C@H](C(C)C)C(=O)N1C [ENN A1] — higher, 48.57 mN/m
- CC[C@H](C)[C@H]1C(=O)O[C@H](C(C)C)C(=O)N(C)[C@@H](C(C)C)C(=O)O[C@H](C(C)C)C(=O)N(C)[C@@H](C(C)C)C(=O)O[C@H](C(C)C)C(=O)N1C [ENN B1] — higher, 43.51 mN/m

With `CC(C)[C@H]1OC(=O)[C@H](Cc2ccccc2)N(C)C(=O)[C@@H](C(C)C)OC(=O)[C@H](Cc2ccccc2)N(C)C(=O)[C@@H](C(C)C)OC(=O)[C@H](Cc2ccccc2)N(C)C1=O` [BEA, Beauvericin] the “critical pressure of insertion, Cardiolipin” value was “--”.
